“Also recorded” adds a separate entry of the source.

The test system of assay [1] is mouse insulinoma cells (MIN6). Kind of assay: Confocal imaging of MIN6 tumor cell cluster using 2-NBDLG+2-TRLG mixture. The assay is classed as cell-based.
Protocol: A 0.1 mg 2-TRLG vial was transferred into a desiccator and the temperature thereof was returned to room temperature. […] Specifically, 6.5 mL of the above-described 2-NBDLG solution was prepared beforehand and stirred vigorously. Then, 40 μL of DMSO was added to a 2-TRLG vial container using a RAININ chip (Mettler Toledo) in which adhesion to the tip wall is ignorable, and stirred with the vial container by a mixer to cause dissolution thereof. 2-TRLG adhered to the wall was collected to the bottom by spinning down, the whole quantity thereof was removed by [sequence] using the same chip, and dissolved in the 2-NBDLG solution being stirred. 2-TRLG slightly remaining in the 2-TRLG vial container was recovered using 25 μL of DMSO in the same manner as described above, and further dissolved in the 2-NBDLG solution. By the above-described method, a mixed solution of 100 μM 2-NBDLG+20 μM 2-TRLG (final concentration) was prepared with good reproducibility.
A 100 μM 2-NBDLG+20 μM 2-TRLG mixture was administered for 3 minutes in a condition completely covering the whole tumor cell cluster. The state of the solution covering the whole cell cluster was confirmed each time without fail by fluorescence images in the green and red wavelength ranges during administration and acquisition of a transmitted light image. By stopping application of the fluorescent glucose mixture and switching simultaneously to the solution to a no fluorescent glucose-containing HEPES solution, the background fluorescence became ignorable level in 1 minute.
By the method according to Example 3, image acquisition before administration of the mixture was started just after starting an experiment, and from then on, the fluorescence images in the blue, green and red wavelength ranges and a transmitted light image were acquired every 2 minutes until completion of the experiment. Regarding laser used, DAPI used for nuclear staining was excited by using 405 nm diode laser (AOTF 20%) and 2-NBDLG and 2-TRLG were excited by using 488 nm argon laser (output: 50%, AOTF 28%). The scan speed was 400 Hz.
For fluorescence detection, three fluorescence detectors were used as described below. For detection of blue fluorescence by DAPI, a photomultiplier detector (PMT)1 was used in the wavelength detection range of 415 to 500 nm (detection sensitivity: 750 V), for detection of green fluorescence by 2-NBDLG, PMT2 was used in the wavelength detection range of 500 to 580 nm (detection sensitivity: 670 V), and for detection of red fluorescence, PMT3 was used in the wavelength detection range of 580 to 740 nm (detection sensitivity: 670 V). Here, most of the fluorescence of 2-TRLG is present in the wavelength longer than 580 nm and only a small fluorescent component is present in the wavelength less than 580 nm, thus, the fluorescence intensity in the range of 500 to 580 nm of PMT2 is barely influenced by 2-TRLG. Therefore, when the amount of detection of 2-TRLG in cells increases, its effect emerges mainly as an increase in the fluorescence intensity in the range of 580 to 740 nm of PMT3. On the other hand, although 2-NBDLG has the maximal fluorescence intensity around 540 to 550 nm, it has fluorescence in the range of 580 to 740 nm as well. Therefore, when the amount of detection of 2-NBDLG within the cell increases, the fluorescence intensity in the range of 580 to 740 nm detected by PMT3 also increases in addition to an increase in the fluorescence intensity in the range of 500 to 580 nm detected by PMT2. […]
The subject of another assay is tumor cells (C6 glioma). Kind of assay: In vivo fluorescent imaging using C6 tumor model mice (rat glioma C6 cells transplanted subcutaneously in nude mice). Set-up: species or system mouse. How it is done: C6 cells were prepared according to an ordinary method so that the cell number was 2×10^7 cells/mL.
C6 cells were seeded on a 10 cm petri dish, allowed to stand still in a CO2 incubator, and cultured at 37° C. The culture medium was exchanged once every two days.
1 g/L glucose-containing Dulbecco's modified Eagle's Medium (DMEM) (Nacalai No. 08456-65), to which Fetal Bovine Serum (Equitech-Bio SFBM) was added so that the final concentration was 10% and penicillin-streptomycin (Nacalai No. 26253-84) was added so that the final concentration was 1%, was used.
5 to 6-week old athymic nude mice (BALB/cAJcl-nu/nu) were transplanted with 50 μL of a cell suspension adjusted to 2×10^7 cells/mL subcutaneously around the root of right hind paw, under isoflurane anesthesia. The transplanted tumor cells were observed until growing to about 200 to 300 mm^3, and used in vivo fluorescent imaging.
C6 tumor model mice were allowed to stand still in an in vivo fluorescence imaging apparatus IVIS (registered trademark) Kinetics (Caliper Life sciences) under isoflurane anesthesia and autofluorescence of the mouse skin was measured, and subsequently, 400 nmol (100 μL) of 2-NBDLG or 2-NBDG dissolved in physiological saline was administered from the tail vein over a period of 30 seconds, and measurement of the fluorescence imaging was started again from one minute after starting administration. The in vivo fluorescence imaging was measured at an excitation wavelength of 465 nm using a GFP filter (transmittable fluorescence wavelength: 515-575 nm). The measurement was conducted for 45 minutes, and images were taken every one minute during the initial 20 minute and every 5 minutes from 20 to 45 minutes, obtaining 25 images in total. The accumulated values (fluorescence value) of 2-NBDLG and 2-NBDG in the interested area were obtained by subtracting the autofluorescence images from the 25 images taken after administration of 2-NBDLG or 2-NBDG.
A vial of 0.5 mg of 2-NBDLG or 2-NBDG was dissolved in 400 μL of physiological saline directly before the experiment, to prepare a solution having a final concentration of 400 nmol/100 μL.

Assay [2] concerns mouse insulinoma cells (MIN6). Kind of assay: Confocal imaging of tumor cell clusters composed of mouse insulinoma cells (MIN6) using 2-NBDLG. The format is cell-based. Conditions: 100 μM, perfusion 3 minutes, just after washout; MIN6 cultured 11 days. How it is done:
Culture medium containing MIN6 cells suspended at a proportion of 10×10^4 cells/mL was dispersed by pipetting, and dropped on a glass cover slip, then, allowed to stand still in a 5% CO2 incubator for 20 minutes to cause adhesion to the glass surface, and 3 mL of the culture medium was added, and the cells were cultured. The half quantity of the culture medium was exchanged every two days.
MIN6 cells (provided by Professor Miyazaki Junichi, Osaka University, and the passage number was six to nine times) were seeded on a 10 cm petri dish, allowed to stand still in a CO2 incubator, and cultured at 37° C. The half quantity of the culture medium was exchanged every two days.
High glucose-containing Dulbecco's modified Eagle's Medium (DMEM-HG) (SIGMA #D5648) (13.4 g), NaHCO3 (Wako, No. 191-01305) (3.4 g) and 2-Mercaptoethanol (Wako, No. 135-14352) (5 μL) were dissolved in 1 liter of ultra-pure water (Mili Q), and equilibrated with ambient air. Next, pH was adjusted to 7.3 to 7.35 using 1N HCl in a CO2 incubator at 37° C., and sterilized by suction filtration. Directly before use, Hyclone Fetal Bovine Serum (Cat# SH30070.03) was added so as to give a final concentration of 10% and penicillin-streptomycin (Gibco #15140) was added so as to give a final concentration of 0.5%.
MIN6 cells were prepared with culture medium so that the cell number was 10×10^4 cells/mL.
The whole quantity of one vial of 0.5 mg 2-NBDLG was dissolved in 14. 6 mL of a HEPES solution for image acquisition, for preparing a 2-NBDLG solution having a final concentration of 100 μM.
NaCl 131.8 mM, KCl 4.75 mM, KH2PO4 1.19 mM, MgCl2 1.2 mM, CaCl2 1 mM, NaHCO3 5.0 mM, D-Glucose 2.8 mM, HEPES 10 mM (adjusted to pH 7.35 with 1M NaOH). For inhibiting entrance and elimination of fluorescently labeled glucose via a gap junction/hemichannel, 0.1 mM Carbenoxolone (SIGMA #C4790) was added. The HEPES solution for image acquisition was used as a solution for preparing a 2-NBDLG solution and as a solution for preparing a 2-NBDLG/2-TRLG solution. […]

[3] abbreviates: 100 μM 2-NBDLG+20 μM 2-TRLG mixture for 3 minutes.

Consider `O=[N+]([O-])c1ccc(NC2C(O)OC(CO)[C@H](O)C2O)c2nonc12` (stereo partly drawn) [2-NBDLG, 2-[N-(7-Nitrobenz-2-oxa-1,3-diazol-4-yl)amino]-2-deoxy-L-glucose], for which, in assay [1] (setting [3]), the “fluorescence at the central region of the cell cluster, 4 minutes after cessation of administration” value is “weaken to a considerable extent” and the “uptake into cells just outside of the central region of the cell cluster” value is on record as “taking up almost no”. Also, the “uptake at the central region of the cell cluster, 2 minutes after cessation of administration” value in assay [1] (100 μM 2-NBDLG+20 μM 2-TRLG mixture for 3 minutes, green channel (2-NBDLG), red channel (2-TRLG)) is reported as “Intense uptake”. The “time of elimination from spherical cells on the outermost periphery of the cell cluster” value in assay [1] (100 μM 2-NBDLG+20 μM 2-TRLG mixture, after cessation of administration) is not above 2 min. For the same compound, the “time of elimination from cells at the central region of the tumor cell cluster” value in assay [1] (100 μM 2-NBDLG+20 μM 2-TRLG mixture, between 2 and 4 minutes after cessation) was not above 2 min. The “fluorescence values at tumor-transplanted part (Tumor) versus normal tissue (BG), FIG. 3” value in the assay on tumor cells (C6 glioma) (400 nmol i.v., temporal change over 45 minutes, same result in 6 examples) is listed as “fluorescence values at the tumor-transplanted part (blue rhombus, Tumor) are consistently larger than at normal tissue”. The “time from which accumulations at the tumor cell-transplanted part were recognized” value with tumor cells (C6 glioma) (400 nmol/100 μL from the tail vein) is on record as “around 5 minutes after administration”. Also, in the assay on tumor cells (C6 glioma) (400 nmol/100 μL from the tail vein over 30 seconds, non-fasted nude mice, fluorescence images every one minute), the “accumulation at the tumor-transplanted part” value is reported as “intense accumulations”. For the same compound, the “contrast between tumor-transplanted part and normal tissue (adipocyte-rich dorsal part near neck)” value in the assay with tumor cells (C6 glioma) (400 nmol/100 μL from the tail vein, non-fasted mice) is listed as “excellent contrast; also recorded: high contrast”. The “uptake/accumulation in normal tissue” value in the assay with tumor cells (C6 glioma) (400 nmol/100 μL from the tail vein, normal tissue (fat tissue on the back, between back bones, muscle)) is “scarcely taken up”. Moreover, in assay [2], the “uptake into cell cluster (a), developed cluster with abnormal nuclei” value was “intense uptake”; the “uptake into cell cluster (b), normal nucleus morphology” value is on record as “only a slight uptake”; the “uptake into cell cluster (c), two-dimensionally accumulated planar cluster” value is “almost no increase in the fluorescence intensity”.
